Entries after “also recorded” stand apart in the source; their conditions may differ.
Experiments:
S. aureus = assay: Antibacterial activity (bacterial growth inhibition); type: cell-based, Staphylococcus aureus; details: at 100 μg/mL; for inhibition at 100 µg/mL: Staphylococcus aureus, read-out: Antibacterial Activity (% Inhibition ± SEM)
[1] = tested on: biofilm of S. aureus ATCC 6538; assay: 96-well plate crystal violet assay for biofilm inhibition; type: cell-based, Staphylococcus aureus; details: at 100 μg/mL, biofilm of S. aureus, 24 hours; for inhibition at 100 µg/mL: Staphylococcus aureus, ATCC6538, read-out: Antibiofilm Activity (% Inhibition ± SEM)
Procedure: The quantitative determination of biofilm inhibition was carried out by the crystal violet assay on a sterile 96-well plate with slight modifications. The glycerol stock of S. aureus was revived overnight at 37°C at 80 rpm. The overnight culture was then diluted 100 folds in fresh BHI broth, supplemented with 0.25% glucose. The cell density was adjusted to 1×10^7 and 195μL of the cell suspension was added in 96-well plate. […] Following that, the plate was washed with sterile distilled water in order to decant the non-adherent cells, and media. The plate was then dried at 60°C for 1 hour, and 200 μL of 0.1% (w/v) crystal violet was added to stain biofilm for 20 minutes. The plate was washed again, air dried, and dispensed 30% (v/v) acetic acid in each well to dissolve the biofilm. The inhibition of biofilm formation was analyzed by measuring the absorbance at 595 nm using the microplate reader (Multiskan Sky, Thermo Scientific, USA). The percent inhibition of biofilm formation was calculated via the following formula: 100−ƛTreated−ƛBlank/ƛControl−ƛBlank×100 Whereƛ=absorbance

**Q.** `Cc1ccc2oc(=O)c(/C=N/NC(N)=S)c(Cl)c2c1` [Compound 1, (E)-2-((4-Chloro-6-methyl-2-oxo-2H-chromen-3-yl)methylene)hydrazinecarbothioamide] was tested. Which “Antibacterial Activity (% Inhibition ± SEM)” value (S. aureus) did it give?
**A.** Its value is “inactive”.

**Q.** What about the “Antibiofilm Activity (% Inhibition ± SEM)” value [1] of the same compound?
**A.** The value was “inactive”.

**Q.** With `Cc1ccc2oc(=O)c(/C=N/Nc3nc(-c4ccc(Cl)cc4Cl)cs3)c(Cl)c2c1` [Compound 5, (E)-4-Chloro-3-((2-(4-(2,4-dichlorophenyl)thiazol-2-yl)hydrazono)methyl)-6-methyl-2H-chromen-2-one] as the compound, how does the inhibition at 100 µg/mL (S. aureus) read?
**A.** The inhibition at 100 µg/mL was 36 ± 8.77%.

**Q.** And the “Antibiofilm Activity (% Inhibition ± SEM)” value [1]?
**A.** Its value is “No Inhibition”.

**Q.** With `Cc1ccc2oc(=O)c(/C=N/Nc3nc(-c4ccc(Br)cc4)cs3)c(Cl)c2c1` [Compound 6, (E)-3-((2-(4-(4-Bromophenyl)thiazol-2-yl)hydrazono)methyl)-4-chloro-6-methyl-2H-chromen-2-one] as the compound, how does the inhibition at 100 µg/mL (S. aureus) read?
**A.** Its inhibition at 100 µg/mL is 72 ± 7.22%.

**Q.** And the inhibition at 100 µg/mL [1]?
**A.** The inhibition at 100 µg/mL was 61 ± 4.05%.

**Q.** What about the “Antibiofilm Activity (% Inhibition ± SEM)” value [1] of the same compound?
**A.** The value was “induced biofilm inhibition; also recorded: dual anti-bacterial and anti-biofilm effect”.

**Q.** For `Cc1ccc2oc(=O)c(/C=N/Nc3nc(-c4ccc(Cl)cc4)cs3)c(Cl)c2c1` [Compound 7, (E)-4-Chloro-3-((2-(4-(4-chlorophenyl)thiazol-2-yl)hydrazono)methyl)-6-methyl-2H-chromen-2-one], which inhibition at 100 µg/mL (S. aureus) is on record?
**A.** Its inhibition at 100 µg/mL is 41 ± 11.1%.

**Q.** What about the “Antibiofilm Activity (% Inhibition ± SEM)” value [1] of the same compound?
**A.** The value was “No Inhibition”.

**Q.** Which inhibition at 100 µg/mL (S. aureus) does the source give for `COc1ccc(-c2csc(N/N=C/c3c(Cl)c4cc(C)ccc4oc3=O)n2)cc1` [Compound 8, (E)-4-Chloro-3-((2-(4-(4-methoxyphenyl)thiazol-2-yl)hydrazono)methyl)-6-methyl-2H-chromen-2-one] here?
**A.** The inhibition at 100 µg/mL was 52 ± 5.08%.

**Q.** And the inhibition at 100 µg/mL [1]?
**A.** Its inhibition at 100 µg/mL is 66 ± 5.11%.

**Q.** And the “Antibiofilm Activity (% Inhibition ± SEM)” value [1]?
**A.** The value was “induced biofilm inhibition; also recorded: dual anti-bacterial and anti-biofilm effect”.

**Q.** For `C/C(=N\NC(N)=S)c1cc2ccccc2oc1=O` [Compound 9, (E)-2-(1-(2-Oxo-2H-chromen-3-yl)ethylidene)hydrazinecarbothioamide], which inhibition at 100 µg/mL (S. aureus) is on record?
**A.** Its inhibition at 100 µg/mL is 55 ± 5.43%.

**Q.** What about the inhibition at 100 µg/mL [1] of the same compound?
**A.** Its inhibition at 100 µg/mL is 22%.

**Q.** And the “Antibiofilm Activity (% Inhibition ± SEM)” value [1]?
**A.** The value was “No Inhibition”.

**Q.** Which results are given for `C/C(=N\Nc1nc(-c2ccc(Cl)cc2)cs1)c1cc2ccccc2oc1=O` [Compound 11, (E)-3-(1-(2-(4-(4-Chlorophenyl)thiazol-2-yl)hydrazono)ethyl)-2H-chromen-2-one]?
**A.** inhibition at 100 µg/mL (S. aureus): 88 ± 4.32%; inhibition at 100 µg/mL [1]: 70 ± 7.09%; Antibiofilm Activity (% Inhibition ± SEM) [1]: induced biofilm inhibition; also recorded: dual anti-bacterial and anti-biofilm effect

**Q.** `C/C(=N\Nc1nc(-c2ccc(Cl)c(Cl)c2)cs1)c1cc2ccccc2oc1=O` [Compound 12, (E)-3-(1-(2-(4-(3,4-Dichlorophenyl)thiazol-2-yl)hydrazono)ethyl)-2H-chromen-2-one] was tested. Which “Antibiofilm Activity (% Inhibition ± SEM)” value [1] did it give?
**A.** The value was “No Inhibition”.

**Q.** Which “Antibacterial Activity (% Inhibition ± SEM)” value (S. aureus) does the source give for `C/C(=N\Nc1nc(-c2cccc([N+](=O)[O-])c2)cs1)c1cc2ccccc2oc1=O` [Compound 13, (E)-3-(1-(2-(4-(3-Nitrophenyl)thiazol-2-yl) hydrazono)ethyl)-2H-chromen-2-one] here?
**A.** The value was “No Inhibition”.

**Q.** And the “Antibiofilm Activity (% Inhibition ± SEM)” value [1]?
**A.** The value was “No Inhibition”.

**Q.** Which results are given for `C/C(=N\Nc1nc(-c2ccc(C#N)cc2)cs1)c1cc2ccccc2oc1=O` [Compound 14, (E)-4-(2-(2-(1-(2-Oxo-2H-chromen-3-yl)ethylidene)hydrazinyl)thiazol-4-yl)benzonitrile]?
**A.** inhibition at 100 µg/mL (S. aureus): 61 ± 9.33%; inhibition at 100 µg/mL [1]: 68 ± 6.63%; Antibiofilm Activity (% Inhibition ± SEM) [1]: induced biofilm inhibition; also recorded: dual anti-bacterial and anti-biofilm effect

**Q.** Which results are given for `C/C(=N\Nc1nc(-c2ccccc2O)cs1)c1cc2ccccc2oc1=O` [Compound 15, (E)-3-(1-(2-(4-(2-Hydroxyphenyl)thiazol-2-yl)hydrazono)ethyl)-2H-chromen-2-one]?
**A.** inhibition at 100 µg/mL (S. aureus): 73 ± 7.16%; inhibition at 100 µg/mL [1]: 34 ± 5.11%; Antibiofilm Activity (% Inhibition ± SEM) [1]: induced biofilm inhibition

**Q.** For `O=c1oc2ccccc2cc1-c1csc(N/N=C/c2ccccc2)n1` [Compound 16, (E)-3-(2-(2-Benzylidenehydrazinyl)thiazol-4-yl)-2H-chromen-2-one], which “Antibiofilm Activity (% Inhibition ± SEM)” value [1] is on record?
**A.** The value was “No inhibition”.

**Q.** Which results are given for `O=c1oc2ccccc2cc1-c1csc(N/N=C/c2cccc(Cl)c2)n1` [Compound 18, (E)-3-(2-(2-(3-Chlorobenzylidene)hydrazinyl)thiazol-4-yl)-2H-chromen-2-one]?
**A.** inhibition at 100 µg/mL (S. aureus): 32 ± 8.97%; inhibition at 100 µg/mL [1]: 25 ± 5.26%

**Q.** Which results are given for `O=c1oc2ccccc2cc1-c1csc(N/N=C/c2ccc(Cl)cc2)n1` [Compound 19, (E)-3-(2-(2-(4-Chlorobenzylidene)hydrazinyl)thiazol-4-yl)-2H-chromen-2-one]?
**A.** Antibacterial Activity (% Inhibition ± SEM) (S. aureus): No Inhibition; inhibition at 100 µg/mL [1]: 37 ± 6.98%

**Q.** With `O=c1oc2ccccc2cc1-c1csc(N/N=C/c2ccc(Cl)cc2Cl)n1` [Compound 20, (E)-3-(2-(2-(2,4-Dichlorobenzylidene)hydrazinyl)thiazol-4-yl)-2H-chromen-2-one] as the compound, how does the “Antibiofilm Activity (% Inhibition ± SEM)” value [1] read?
**A.** The value was “No Inhibition”.

**Q.** Which “Antibiofilm Activity (% Inhibition ± SEM)” value [1] does the source give for `O=c1oc2ccccc2cc1-c1csc(N/N=C/c2ccccc2[N+](=O)[O-])n1` [Compound 21, (E)-3-(2-(2-(2-Nitrobenzylidene)hydrazinyl)thiazol-4-yl)-2H-chromen-2-one] here?
**A.** Its value is “No Inhibition”.

From publication PMC11412489, “Coumarin derivatives as new anti-biofilm agents against Staphylococcus aureus” (PLOS ONE, 2024)
